For eleven compounds, IC50 results are on record in patent publication US12577245B2, “Sulfonyl benzamide derivatives as Bcl-2 inhibitors” (ASCENTAGE PHARMA (SUZHOU) CO., LTD., priority 2021, dated 2026).

Molecules are shown by their SMILES.

The target in assay [1] is Bcl-2 WT (Homo sapiens, UniProt P10415). Nature of the assay: Bcl-2 WT inhibition, fluorescence polarization (Flu-BIM tracer) binding assay. As to conditions: FP; 20 nM Bcl2, 5 nM Flu-BIM, 1 h incubation; read-out: Bcl-2 w.t. (FP).
In assay [2] the test system is RS4; 11Bcl-2-G101V cells. Nature of the assay: CellTiter-Glo (CTG) cell viability assay in RS4;11-Bcl-2-G101V cells. It is filed as cell-based. As to conditions: 72 h, 10% FBS, 3 days. In outline:
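Luminescent ATP read-out (CellTiter-Glo) after 3-day compound treatment at 37 °C gave viability relative to vehicle, from which IC50 was fitted. Mutant Bcl-2 RS4;11 cells were seeded at 10000 per well and rested 4 h before dosing.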

Assay [3] concerns MV-4-11 cells. Nature of the assay: CCK-8 cell viability assay in MV-4-11 cells. It is filed as cell-based. To be noted: Homo sapiens, MV4-11, 72 h, 10% FBS, 3 days. The gist of the method: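 IC50 values come from vehicle-normalized CCK-8 absorbance at 450 nm, read 1–4 h after reagent addition. Before that, MV-4-11 cells seeded at 20000 per well were cultured 3 days at 37 °C with a compound dilution series.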

Bcl-2 WT, sequence (P10415 whole entry): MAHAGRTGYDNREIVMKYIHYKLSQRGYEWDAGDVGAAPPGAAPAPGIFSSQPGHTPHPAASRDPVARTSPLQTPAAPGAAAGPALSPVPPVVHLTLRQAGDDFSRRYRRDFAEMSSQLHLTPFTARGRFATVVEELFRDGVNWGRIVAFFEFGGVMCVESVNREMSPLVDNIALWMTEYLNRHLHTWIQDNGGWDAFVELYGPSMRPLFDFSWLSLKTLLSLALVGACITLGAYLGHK

For the compound `CC1(C)CCC(CN2CCN(c3ccc(C(=O)NS(=O)(=O)c4ccc(NC[C@H]5CC[C@](C)(O)CC5)c([N+](=O)[O-])c4)c(Oc4cnc5[nH]ccc5c4)c3)CC2)=C(c2cc(-c3cccc(C(C)(C)O)c3)cs2)C1` [Example 70, 2-((1H-pyrrolo[2,3-b]pyridin-5-yl)oxy)-N-((4-((((1r,4r)-4-hydroxy-4-methylcyclohexyl)methyl)amino)-3-nitrophenyl)sulfonyl)-4-(4-((2-(4-(3-(2-hydroxypropan-2-yl)phenyl)thiophen-2-yl)-4,4-dimethylcyclohex-1-en-1-yl)methyl)piperazin-1-yl)benzamide], the IC50 in assay [1] stood at 19.8 nM; in assay [2], 1460 nM; in assay [3] it was 95 nM.

With `CC1(C)CCC(CN2CCN(c3ccc(C(=O)NS(=O)(=O)c4ccc(NC[C@H]5CC[C@](C)(O)CC5)c([N+](=O)[O-])c4)c(Oc4cnc5[nH]ccc5c4)c3)CC2)=C(c2cc(-c3ccc(C(C)(C)O)c(F)c3)cs2)C1` [Example 71, 2-((1H-pyrrolo[2,3-b]pyridin-5-yl)oxy)-4-(4-((2-(4-(3-fluoro-4-(2-hydroxypropan-2-yl)phenyl)thiophen-2-yl)-4,4-dimethylcyclohex-1-en-1-yl)methyl)piperazin-1-yl)-N-((4-((((1r,4r)-4-hydroxy-4-methylcyclohexyl)methyl)amino)-3-nitrophenyl)sulfonyl)benzamide], the IC50 in assay [1] turned out to be 15.4 nM; in assay [2], 330 nM; in assay [3], 12 nM.

Turning to `CC(CO)c1ccc(-c2csc(C3=C(CN4CCN(c5ccc(C(=O)NS(=O)(=O)c6ccc(NC[C@H]7CC[C@](C)(O)CC7)c([N+](=O)[O-])c6)c(Oc6cnc7[nH]ccc7c6)c5)CC4)CCC(C)(C)C3)c2)c(F)c1` (stereo partly drawn) [Example 72, 2-((1H-pyrrolo[2,3-b]pyridin-5-yl)oxy)-4-(4-((2-(4-(2-fluoro-4-(1-hydroxypropan-2-yl)phenyl)thiophen-2-yl)-4,4-dimethylcyclohex-1-en-1-yl)methyl)piperazin-1-yl)-N-((4-((((1r,4r)-4-hydroxy-4-methylcyclohexyl)methyl)amino)-3-nitrophenyl)sulfonyl)benzamide], the results for the IC50 in assay [1], in assay [2] and in assay [3] were 20.5 nM, 440 nM and 12 nM, respectively.

With `CC(C)(O)Cc1ccc(-c2csc(C3=C(CN4CCN(c5ccc(C(=O)NS(=O)(=O)c6ccc(NC[C@H]7CC[C@](C)(O)CC7)c([N+](=O)[O-])c6)c(Oc6cnc7[nH]ccc7c6)c5)CC4)CCC(C)(C)C3)c2)c(F)c1` [Example 73, 2-((1H-pyrrolo[2,3-b]pyridin-5-yl)oxy)-4-(4-((2-(4-(2-fluoro-4-(2-hydroxy-2-methylpropyl)phenyl)thiophen-2-yl)-4,4-dimethylcyclohex-1-en-1-yl)methyl)piperazin-1-yl)-N-((4-((((1r,4r)-4-hydroxy-4-methylcyclohexyl)methyl)amino)-3-nitrophenyl)sulfonyl)benzamide], the IC50 in assay [1] was 23.7 nM; in assay [2] it was 490 nM; in assay [3], 8 nM.

In the case of `CC1(C)CCC(CN2CCN(c3ccc(C(=O)NS(=O)(=O)c4ccc(NC[C@H]5CC[C@](C)(O)CC5)c([N+](=O)[O-])c4)c(Oc4cnc5[nH]ccc5c4)c3)CC2)=C(c2cc(-c3c(F)cc(C(C)(C)CO)cc3F)cs2)C1` [Example 74, 2-((1H-pyrrolo[2,3-b]pyridin-5-yl)oxy)-4-(4-((2-(4-(2,6-difluoro-4-(1-hydroxy-2-methylpropan-2-yl)phenyl)thiophen-2-yl)-4,4-dimethylcyclohex-1-en-1-yl)methyl)piperazin-1-yl)-N-((4-((((1r,4r)-4-hydroxy-4-methylcyclohexyl)methyl)amino)-3-nitrophenyl)sulfonyl)benzamide], the IC50 in assay [1] is 38.5 nM; in assay [2], 230 nM; in assay [3], 52 nM.

In the case of `CC1(C)CCC(CN2CCN(c3ccc(C(=O)NS(=O)(=O)c4ccc(NC[C@H]5CC[C@](C)(O)CC5)c([N+](=O)[O-])c4)c(Oc4cnc5[nH]ccc5c4)c3)CC2)=C(c2cc(-c3cc(C(C)(C)O)ccc3F)cs2)C1` [Example 75, 2-((1H-pyrrolo[2,3-b]pyridin-5-yl)oxy)-4-(4-((2-(4-(2-fluoro-5-(2-hydroxypropan-2-yl)phenyl)thiophen-2-yl)-4,4-dimethylcyclohex-1-en-1-yl)methyl)piperazin-1-yl)-N-((4-((((1r,4r)-4-hydroxy-4-methylcyclohexyl)methyl)amino)-3-nitrophenyl)sulfonyl)benzamide], the IC50 in assay [1] came to 19.2 nM; in assay [2], 1580 nM; in assay [3] it was 118 nM.

For the compound `CC1(C)CCC(CN2CCN(c3ccc(C(=O)NS(=O)(=O)c4ccc(NC[C@H]5CC[C@](C)(O)CC5)c([N+](=O)[O-])c4)c(Oc4cnc5[nH]ccc5c4)c3)CC2)=C(c2cc(-c3ccc(C(C)(O)C(F)(F)F)cc3F)cs2)C1` (stereo partly drawn) [Example 78, 2-((1H-pyrrolo[2,3-b]pyridin-5-yl)oxy)-4-(4-((2-(4-(2-fluoro-4-(1,1,1-trifluoro-2-hydroxypropan-2-yl)phenyl)thiophen-2-yl)-4,4-dimethylcyclohex-1-en-1-yl)methyl)piperazin-1-yl)-N-((4-((((1r,4r)-4-hydroxy-4-methylcyclohexyl)methyl)amino)-3-nitrophenyl)sulfonyl)benzamide], the IC50 is 16.8 nM in assay [1], 580 nM in assay [2] and 59 nM in assay [3].

For the compound `CC1(C)CCC(CN2CCN(c3ccc(C(=O)NS(=O)(=O)c4ccc(NC[C@H]5CC[C@](C)(O)CC5)c([N+](=O)[O-])c4)c(Oc4cnc5[nH]ccc5c4)c3)CC2)=C(c2cc(-c3ccc4c(c3)CCC4(C)O)cs2)C1` (stereo partly drawn) [Example 79, 2-((1H-pyrrolo[2,3-b]pyridin-5-yl)oxy)-4-(4-((2-(4-(1-hydroxy-1-methyl-2,3-dihydro-1H-inden-5-yl)thiophen-2-yl)-4,4-dimethylcyclohex-1-en-1-yl)methyl)piperazin-1-yl)-N-((4-((((1r,4r)-4-hydroxy-4-methylcyclohexyl)methyl)amino)-3-nitrophenyl)sulfonyl)benzamide], the IC50 in assay [1] was determined as 15.8 nM; in assay [2], 170 nM; in assay [3], 11 nM.

In the case of `CC(=O)NC(C)(C)c1cc(F)c(-c2csc(C3=C(CN4CCN(c5ccc(C(=O)NS(=O)(=O)c6ccc(NC[C@H]7CC[C@](C)(O)CC7)c([N+](=O)[O-])c6)c(Oc6cnc7[nH]ccc7c6)c5)CC4)CCC(C)(C)C3)c2)c(F)c1` [Example 80, 2-((1H-pyrrolo[2,3-b]pyridin-5-yl)oxy)-4-(4-((2-(4-(4-(2-acetamidopropan-2-yl)-2,6-difluorophenyl)thiophen-2-yl)-4,4-dimethylcyclohex-1-en-1-yl)methyl)piperazin-1-yl)-N-((4-((((1r,4r)-4-hydroxy-4-methylcyclohexyl)methyl)amino)-3-nitrophenyl)sulfonyl)benzamide], the IC50 was 15.6 nM in assay [1], 420 nM in assay [2] and 111 nM in assay [3].

Consider `Cc1sc(C2=C(CN3CCN(c4ccc(C(=O)NS(=O)(=O)c5ccc(NC[C@H]6CC[C@](C)(O)CC6)c([N+](=O)[O-])c5)c(Oc5cnc6[nH]ccc6c5)c4)CC3)CCC(C)(C)C2)cc1-c1c(F)cc(C(C)(C)O)cc1F` [Example 81, 2-((1H-pyrrolo[2,3-b]pyridin-5-yl)oxy)-4-(4-((2-(4-(2,6-difluoro-4-(2-hydroxypropan-2-yl)phenyl)-5-methylthiophen-2-yl)-4,4-dimethylcyclohex-1-en-1-yl)methyl)piperazin-1-yl)-N-((4-((((1r,4r)-4-hydroxy-4-methylcyclohexyl)methyl)amino)-3-nitrophenyl)sulfonyl)benzamide], for which the IC50 stood at 34.6 nM in assay [1], 1710 nM in assay [2] and 270 nM in assay [3].

On to `CC1(C)CCC(CN2CCN(c3ccc(C(=O)NS(=O)(=O)c4ccc(NC[C@H]5CC[C@](C)(O)CC5)c([N+](=O)[O-])c4)c(Oc4cnc5[nH]ccc5c4)c3)CC2)=C(c2cc(-c3c(F)cc(C(C)(C)C(=O)O)cc3F)cs2)C1` [Example 82, 2-(4-(5-(2-((4-(3-((1H-pyrrolo[2,3-b]pyridin-5-yl)oxy)-4-(((4-((((1r,4r)-4-hydroxy-4-methylcyclohexyl)methyl)amino)-3-nitrophenyl)sulfonyl)carbamoyl)phenyl)piperazin-1-yl)methyl)-5,5-dimethylcyclohex-1-en-1-yl)thiophen-3-yl)-3,5-difluorophenyl)-2-methylpropanoic acid], for which the results for the IC50 in assay [1], in assay [2] and in assay [3] were 18.1 nM, 1270 nM and 114 nM, respectively.
